Measured values: patent US20220195059A1, “Rank Pathway Inhibitors in Combination with CDK Inhibitors” (INSTITUTO DE MEDICINA MOLECULAR JOÃO LOBO ANTUNES, priority 2019, published 2022)

How the values were obtained:
[1] = test system: TNBC cells (MDA-MB-231, MDA-MB-436, MDA-MB-468, MDA-MB-157, HCC1937, BT-20); assay: Alamar blue viability assay, TNBC cell lines with or without OPG-Fc; type: cell-based, human; settings: 7 days
Procedure: Cells were seeded in 96 well-plates (2-5×10^4 cells/mL), with or without paclitaxel (Y0000698, Sigma), doxorubicin hydrochloride (D2975000, Sigma), palbociclib (PD 0332991 isethionate, PZ0199, Sigma), ribociclib (LEE011 succinate, SC-488174, Santa Cruz), abemaciclib mesylate (LY2835219, S7158, Selleckchem), fulvestrant (S1191, Selleckchem), everolimus (#73122, StemCell Technologies), full length human OPG (SRP3132, Sigma), and OPG-Fc (Amgen). Medium was replaced every 2 days. After 7 days, 1:10 Alamar blue (Invitrogen) was added to each well and fluorescence was measured 2 hours after incubation (excitation 560 nm; emission 590 nm) in an Infinite M200 microplate reader (Tecan).
Medium was replaced every two days, and viability was assessed by Alamar blue assay.
Cells were seeded in 96 well-plates (2-5×10^4 cells/mL), with or without palbociclib (PD 0332991 isethionate, PZ0199, Sigma), ribociclib (LEE011 succinate, SC-488174, Santa Cruz), abemaciclib mesylate (LY2835219, S7158, Selleckchem), 3-ATA (sc-202414, Santa Cruz), Cdk4 inhibitor Ill (sc-202988, Santa Cruz), seliciclib (S1153, Selleckchem), and OPG-Fc (PL-33324, Amgen). Medium was replaced every 2 days. After 7 days, 1:10 Alamar blue (Invitrogen) was added to each well and fluorescence was measured 2 hours after incubation (excitation 560 nm; emission 590 nm) in an Infinite M200 microplate reader (Tecan).

MDA-MB-231 xenografts = assay: TNBC ectopic xenograft model; type: in vivo, NSG mice; settings: Palbociclib 30 mg/Kg/day p.o., 21 days; xenografts not regressed
Procedure: Based on these findings TNBC BC sensitivity to CDK4/6 inhibitors (palbociclib) in combination with RANK pathway blockage was tested in a TNBC ectopicxenograft model (FIG. 27). Nod scid gama (NSG) mice were inoculated subcutaneously and bilaterally in the flanks (n=5/group). Tumors were measured with caliper. When tumors reach approximately 100 mm^3 mice were randomized based on tumor size and treated according to the experimental protocol. Palbociclib was used at 30 mg/Kg/day for 21 consecutive days, as the human equivalent dose (HED) of 125 mg/day approved for palbociclib is equivalent to […] in mice (Nair and Jacob, J Basic Clin Pharm. 2016 March; 7(2):27-31). OPG-Fc was used at 10 mg/Kg 3×/week (HED 291.6 mg/15 days).
Nod scid gama (NSG) mice were inoculated subcutaneously and bilaterally in the flanks with MDA-MB-231 cells (n=4-5/group). Six weeks post inoculation mice were randomized based on tumor size and treated with OPG-Fc 10 mg/Kg i.p. 3× per week; Palbociclib 30 mg/Kg/day p.o. or the combination. […] The data are presented as mean±SEM. p-value was calculated using ANOVA, *p<0.05, **p<0.01, ***p<0.001.
Tumor growth was monitored every two days with caliper and tumor volume calculated using the formula Tvol=½(length×width^2). […]
TRAcP 5b was quantified in mouse serum using the MouseTRAP (TRAcP 5b) ELISA kit (IDS), according to the manufacturer instructions.

[2] = test system: MDA-MB-231 GFP+Luc+ xenografts; assay: Pilot study, orthotopic TNBC xenografts; type: in vivo, NSG mice; settings: measured throughout the experiment; between groups
Procedure: A pilot study to test the sensitivity of TNBC xenografts to CDK4/6 inhibitors (palbociclib) in combination with RANK pathway blockage (OPG-Fc) was performed. […] As shown in this figure, body weight was not different between groups. The proliferation index of tumors as measured by the quantification of Ki67-positive cells and p-pRB positive cells is shown in FIG. 13D. FIG. 13C is a series of images of Ki67-stained or p-pRb stained cells.

For `CC(=O)c1c(C)c2cnc(Nc3ccc(N4CCNCC4)cn3)nc2n(C2CCCC2)c1=O` [palbociclib], the “sensitivity of TNBC cells to CDK4/6 inhibitor (cell viability)” value [1] was “resistance”, the “tumor growth (tumor volume)” value (MDA-MB-231 xenografts) was “slowing of tumor growth” and the body weight [2] was “not different”.
